Blank lines part the entries; values can stand above or below the molecule they belong to.
Columns and labels:
[1] = target: T1, heparin-induced synthetic recombinant tau fibrils (tau-441 human) (Homo sapiens, UniProt P10636); experiment: Fluorescence quenching assay of compound binding to heparin-induced synthetic recombinant tau fibrils; conditions: read-out: Kd of compound binding to heparin-induced synthetic tau fibrils determined by fluorimetry
T1 construct: purchased Eurogentec
Protocol: All compounds were assessed for their ability to bind to synthetic recombinant tau fibrils using a fluorescence quenching assay[20] […] Binding affinities for some compounds (141, 164, 166, 169, 171, and 207) could not be assessed with this assay because of negligible changes in fluorescence intensity. […] This compound was then selected for further characterization and development.
All reagents and solvents were used as supplied or purified using standard procedures as necessary. Analytical separation was conducted on an Ultimate 3000 HPLC system (Thermo Scientific). [^11C]CO2 was produced via the ^14N(p,α) nuclear reaction using GE PETtrace cyclotron applying 16.5 MeV protons onto 0.5% oxygen in nitrogen gas. [^11C]Methyl iodide was synthesized on a GE Medical Systems MeI MicroLab. A F-4500 FL spectrophotometer (Chemical Engineering department, University of Cambridge) was used to do fluorescence scan of all of the compounds mixed with tau fibrils. Excitation wavelength was 365 nm, and emission was scanned from 400 to 600 nm. With parameters, setting excitation slit was 5.0 nm, emission slit was 20.0 nm, PMT voltage was 950 V, and response was 0.5 s.
Monomeric tau (tau-441 human) lyophilized powder was obtained from Eurogentec. Tau monomers (100 μM) were prepared in 20 mM BES buffer (pH 7.4 with 25 mM NaCl and 2 mM dithiothreitol and incubated at 56 °C for 10 min. After being cooled to room temperature in a water bath, heparin (25 μM) and a protease inhibitor mix were added and incubated at 37 °C for 10 days. […]
Binding affinity of all compounds with tau fibrils […]
All other compounds binding affinit ies towards tau fibrils
were then tested by fluorescent binding assay. […]

[2] = test system: tau aggregates in DRG neurons from P301S tau mice; experiment: Fluorescence binding to cultured DRG neurons from P301S tau transgenic mice; assay type: cell-based, mouse; conditions: IC50 could not be derived because of low affinity
Protocol: P301S tau mice with aggregated tau in the brain also express aggregated tau in DRG neurons.[24]−[26] […] To estimate the apparent affinity of LM229 to tau aggregates directly in living neurons, we imaged live neurons after 20 min incubation with various concentrations of LM229 (Figure 4A). […] LM229 binding was specific to neurons with aggregated tau, as detected with the AT100 antibody[18],[22],[23],[26] (Figure 4D). […] Although PBB3 also bound to DRG neurons with tau aggregates at 30–100 μM, it was not possible to derive an IC50 value because of its low affinity in this assay (Supporting Information, Figure S2). […] The shift from nanomolar to micromolar affinity between binding to heparin tau fibrils and tau aggregates in P301S tau neurons may reflect the different environment and assay conditions or the different conformations that tau aggregates assume in neurons compared to heparin–tau complexes.[27]
Neurons were prepared from phenotypic end stage 5–7 month old P301S tau mice and cultured as described previously.[24] For live staining, neurons cultured for 2 days were washed in PBS and incubated with various concentrations of LM229 for 20 min at room temperature. After three washes in PBS, neurons were imaged on a Leica DMI 4000B microscope using a DFC3000 G camera and application suite 4.0.0.11706. The dead cell stain Propidium iodide (1 μg/mL) was added to ensure that only live cells were imaged. Phase contrast images were taken to show viable neurons. For fixed cell staining, neurons were fixed for 20 min at room temperature in 4% paraformaldehyde, washed in PBS, and permeabilized in PBS containing 0.3% Triton X-100. LM299 was added as described for live cells, and cells were probed with AT100 (1:1000, MN1060) followed by anti-mouse AlexaFluor568 secondary antibody. Cultures were co-stained with the nuclear dye DAPI (blue) to reveal total cells. […]
(§1) Binding to cultured neurons from P301S tau transgenic mice
(§2) DRG were incubated with the indicated concentrations of LM229 or PBB3 for 20 minutes at room temperature, washed 3 times in PBS, and imaged on a Leica DMI 4000B microscope using a Leica DFC3000 G camera and the Leica application suite 4.0.0.11706. Fluorescence intensity was measured in 10-16 neurons each from 3 independent cultures using Image J (imagej.nih.gov/ij/). Results shown are mean ± SD. Non linear least squares curve fitting was applied using http://faculty.gvsu.edu/carlsont/232lab/nonlin2.html. No Km value was […]
Figure S2: Binding of LM229 and PBB3 to DRG neurons with tau aggregates […]
(1 picture or pasted object on this page, not shown here)

[3] = target: T2, tau aggregates in brain of P301S tau mice (Homo sapiens, UniProt P10636, P618S); experiment: Ex vivo mouse study: i.v. injection, brain sections imaged after 1 h; assay type: in vivo; conditions: i.v. injection 1 h prior, colocalization with AT8
T2 construct: from tissue; host or cells: brain of transgenic P301S tau mice (C57Bl/6 background)
T2 sequence (P10636 1-383 isoform P10636-6 P243S): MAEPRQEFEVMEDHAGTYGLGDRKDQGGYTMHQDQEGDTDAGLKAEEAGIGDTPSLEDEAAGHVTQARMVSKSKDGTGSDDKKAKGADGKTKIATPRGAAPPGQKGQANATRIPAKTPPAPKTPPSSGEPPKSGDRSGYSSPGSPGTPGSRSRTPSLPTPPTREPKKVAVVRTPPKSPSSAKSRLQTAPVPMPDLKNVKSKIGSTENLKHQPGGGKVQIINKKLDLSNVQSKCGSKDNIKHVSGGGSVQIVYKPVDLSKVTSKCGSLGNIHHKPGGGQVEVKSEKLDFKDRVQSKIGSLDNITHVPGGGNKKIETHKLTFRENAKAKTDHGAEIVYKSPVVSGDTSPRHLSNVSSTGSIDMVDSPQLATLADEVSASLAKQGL
Protocol: We next looked at the ability of LM229 to cross the blood–brain barrier (BBB), a key property of any viable neuro-radiotracer. LM229 was injected intravenously (i.v.) (1 mg/kg weight), and after 1 h, WT and P301S tau mice were perfused-fixed and brain sections were imaged under a fluorescence microscope. […] However, we await a comparison of PBB3 and LM229 by PET imaging to determine their relativity properties as in vivo imaging probes.
Mice were injected intravenously (i.v.) with 50 μM LM229 or PBB3 (DMSO) diluted in 50:50 ethanol/PBS. Animals were then perfused (4% PFA) 1 h post-i.v.

[4] = target: T3, 3R tau151-391 aggregates in cortical sections from SHR24 rats (Homo sapiens, UniProt P10636); experiment: Binding to SHR24 transgenic rat brain sections; conditions: 50 μM, colocalization with AT8
T3 construct: tissue AXON Neuroscience; host or cells: brain (cortex) sections of SHR24 transgenic rats
T3 sequence (P10636 151-360 isoform P10636-5): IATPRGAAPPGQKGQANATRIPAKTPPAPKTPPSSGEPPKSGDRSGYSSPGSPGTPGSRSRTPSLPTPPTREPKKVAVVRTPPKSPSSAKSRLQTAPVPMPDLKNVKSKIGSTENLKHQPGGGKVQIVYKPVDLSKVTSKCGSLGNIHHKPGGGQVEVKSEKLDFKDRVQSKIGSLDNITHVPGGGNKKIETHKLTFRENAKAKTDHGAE
Excerpt: (§3) Since future PET studies for development of these compounds would require kinetic modeling for their assessment in vivo, we tested their performance in tau transgenic rats. Rat brains and blood volumes are about 6- and 10-fold larger, respectively, than those of mice and thus enable higher resolution imaging and ample volume for repeated blood sampling. We used two transgenic rat lines expressing human-truncated tau comprising the proline-rich region and either three microtubule binding domains (3R tau151-391, SH24)[28] or four microtubule binding domains (4R tau151-391, SHR72).[29] […] However, compared to the SHR24 rat brain sections, there were less inclusions detected, which seems to indicate the compounds have preferential binding toward the three repeat forms of tau in these rat models.
(§4) Fresh frozen rat brain coronal sections (10 μm) were stored on slides at −80 °C until use. Sections were fixed in ice cold acetone for 10 min and air-dried and then rehydrated twice for 5 min with buffer (10 mM PBS with 0.1% Triton X-100) before application of 5% bovine serum albumin for 1 h and two more 5 min buffer washes. Primary monoclonal antibody AT8 (Thermo MN1020, 1:1000) was added overnight at 4 °C, followed by 1 h incubation with a mixture of secondary AlexaFluor555 goat anti-mouse antibody (1:1000) and 50 μM PBB3 or LM229 in 50:50 ethanol/buffer. Following two 5 min washes in buffer, the slides were air-dried and cover-slipped using Fluorsave before analysis. The green autofluorescence of PBB3 and LM229 was visualized using a 488 nm filter and fluorescence of AT8 using a 568 nm filter on a Leica DM6000 microscope.

[5] = test system: 3R tau151-391 aggregates in cortical sections from SHR24 rats; experiment: Binding to SHR24 transgenic rat brain sections; conditions: SHR24 (3R) vs SHR72 (4R) brain tissue
Excerpt: as §3, §4

[6] = target: T4, 4R tau151-391 aggregates in brainstem sections from SHR72 rats (Homo sapiens, UniProt P10636); experiment: Binding to SHR72 transgenic rat brain sections; conditions: 50 μM, colocalization with AT8
T4 construct: tissue AXON Neuroscience; host or cells: brain (brainstem) sections of SHR72 transgenic rats
T4 sequence (P10636 468-708): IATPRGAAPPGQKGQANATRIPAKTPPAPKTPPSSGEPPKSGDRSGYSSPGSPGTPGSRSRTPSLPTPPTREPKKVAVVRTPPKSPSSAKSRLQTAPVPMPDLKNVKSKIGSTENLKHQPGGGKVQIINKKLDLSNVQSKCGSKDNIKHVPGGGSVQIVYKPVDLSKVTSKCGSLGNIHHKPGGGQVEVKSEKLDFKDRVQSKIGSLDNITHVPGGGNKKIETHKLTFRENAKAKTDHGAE
Excerpt: as §3
Fresh frozen rat brain coronal sections (10 μm) were stored on slides at −80 °C until use. Sections were fixed in ice cold acetone for 10 min and air-dried and then rehydrated twice for 5 min with buffer (10 mM PBS with 0.1% Triton X-100) before application of 5% bovine serum albumin for 1 h and two more 5 min buffer washes. […] The green autofluorescence of PBB3 and LM229 was visualized using a 488 nm filter and fluorescence of AT8 using a 568 nm filter on a Leica DM6000 microscope.

[7] = target: tau fibrils; parameters: method as in PMID 28087578; conditions: read-out: Kd, previously reported value; cited from earlier work
[8] = In vivo PET studies in wild-type and P301S tau mice; parameters: species or system mouse; conditions: for Maximum brain uptake (%ID/g max): whole brain
Excerpt: We then performed preliminary in vivo PET studies with [^11C]L229 in both WT and transgenic P310S tau mice. […] Further PET studies are required to fully characterize the in vivo pharmacokinetics of the radiotracer in both mice and rats.
These studies were regulated under the Animals (Scientific Procedures) Act 1986 Amendment Regulations 2012 following ethical review by the University of Cambridge Animal Welfare and Ethical Review Body (AWERB). The mice were anesthetized with 5% isoflurane, and general anesthesia was maintained using 1.5% isoflurane. The anesthetized mice were placed prone on the bed of a microPET Focus-220 scanner (Concorde Microsystems, Knoxville, TN). Body temperature was maintained at 37 °C using a heating blanket connected to a rectal thermistor probe. Blood oxygen saturation as well as heart rate and breathing rate were monitored and maintained within normal limits using a noninvasive mouseOX pulse-oximeter sensor (Starr Life Science Corp., Oakmont, PA) attached to the thigh. Before the injection of a tracer, a transmission scan was performed with a 68Ge point source for attenuation and scatter correction of 511 keV photons. [^11C]LM229 was injected via the tail vein over 30 s, followed by a 15 s heparin–saline flush. Dynamic data were acquired in list mode for 90 min. Data were subsequently Fourier rebinned in following time frames: 12 × 5 s, 6 × 10 s, 3 × 20 s, 4 × 30 s, 5 × 60 s, 10 × 120 s, 12 × 5 min. Corrections were applied for randoms, dead time, normalization, attenuation, and decay. Fourier rebinning was used to compress the 4D sinograms to 3D before reconstruction with a 2D-filtered back projection with a Hann window cutoff at the Nyquist frequency. The image voxel size was 0.95 × 0.95 × 0.80 mm, with an array size of 128 × 128 × 95.
Three-dimensional volumes of interest (VOIs) for mice brain MRI template available on PMOD software (version 3.8; PMOD technologies, Zurich, Switzerland) were modified to obtain a whole brain VOI. […] The results were expressed as % injected dose per gram, assuming a specific gravity of 1 g·mL^–1 for brain tissue.

[9] = test system: tau pathology in PS19 tau transgenic mice; parameters: method as in PMID 24050400; conditions: cited from earlier work
[10] = test system: tau tangles in transgenic mice expressing mutant human P301L tau; parameters: method as in PMID 27030397, PMID 23411393; conditions: in vitro and microPET in vivo imaging; cited from earlier work
[11] = test system: brainstem of P301S tau mice; parameters: method as in PMID 29930508; conditions: P301S tau mice vs WT; cited from earlier work
[12] = target: T5, tau fibrils (Homo sapiens, UniProt P10636); experiment: Microscale thermophoresis screen for interaction with tau fibrils; assay type: binding; conditions: 1 µM and 1 nM compound mixed with 100 nM tau fibrils
T5 construct: purchased Eurogentec
T5 sequence (P10636 1-441 isoform P10636-8): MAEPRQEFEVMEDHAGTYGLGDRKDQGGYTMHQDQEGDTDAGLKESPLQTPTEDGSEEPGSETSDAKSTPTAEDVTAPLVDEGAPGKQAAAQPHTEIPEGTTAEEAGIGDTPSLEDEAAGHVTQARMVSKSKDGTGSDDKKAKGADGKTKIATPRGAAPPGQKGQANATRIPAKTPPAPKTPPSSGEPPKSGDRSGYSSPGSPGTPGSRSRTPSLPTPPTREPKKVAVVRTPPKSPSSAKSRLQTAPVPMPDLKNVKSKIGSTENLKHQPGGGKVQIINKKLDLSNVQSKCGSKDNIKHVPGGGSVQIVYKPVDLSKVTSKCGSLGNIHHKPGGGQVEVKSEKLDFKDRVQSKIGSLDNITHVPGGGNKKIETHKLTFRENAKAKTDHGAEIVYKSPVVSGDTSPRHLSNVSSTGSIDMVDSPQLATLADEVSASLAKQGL
Protocol: buffer) for 1 h at room temperature. Following 3 washes in PBS/0.1% Triton X-100, 50 µM LM229 (diluted in 1:1 blocking buffer/ethanol) was then added for 1 h at room temperature. Nuclei were stained with DAPI (0.1mg/ml for 10 min), washed and tissues mounted in FluorSaveTM prior to analysis using fluorescence […]
Binding affinity of all compounds with tau fibrils
Microscale Thermophoresis was first used to screen whether there were interaction between the compounds and tau fibrils. For this procedure 200 µL, 5 µM tau fibrils were mixed with 200 µL, 10 µM NT647-NHS dye and then incubated in dark for 30 minutes. Further dialysis (18 hours, changing the buffer after the first 4 hours) was used to remove the free dye giving a 2.5 µM solution of label led protein. The label ling ratio of dye unit per tau monomer was then tested by a method recommended by the instrument manufacturer, NanoTemper Technologies, which is based on a cal ibration curve. The 2.5 µM tau fibril solution was then aliquoted prior to use. The unused samples were frozen at -20 °C. MST measurements were conducted using Monolith NT.115 instrument (NanoTemper Technologies, Germany) at 25 °C. Assays were conducted at 40 % MST Power and 90 % IR-laser power. With each compound, two concentrations (1µM and 1nM) were used to mix with 100nM tau fibrils and then loaded to the MST instrument to read out the MST data curve. Only three compounds 166, 164 […]
All other compounds binding affinit ies towards tau fibrils were then tested by fluorescent binding assay.
as §1
as §2, with “http://faculty.gvsu.edu/carlsont/232lab/nonlin2.html.” for “http://faculty.gvsu.edu/carlsont/232lab/nonlin2.html. No Km value was”

T1 sequence (P10636 1-441 isoform P10636-8): as above

Kd [1]: 0.0014 µM | Ex vivo binding in P301S tau brain tissue [3]: significant nonspecific binding
SMILES: CNc1ccc(/C=C/C=C/c2nc3ccc(O)cc3s2)cn1 [PBB3, reference compound]
Concentration at which binding to DRG neurons with tau aggregates was seen [2]: 30 to 100 µM | Binding to pathological aggregated tau in SHR24 rat brain sections [4]: bound with similar properties to pathological aggregated tau | Preference between 3R and 4R tau inclusions in rat models [5]: preferential binding toward the 3R tau inclusions | Binding to tau in SHR72 rat brain sections [6]: bound to tau in brain sections from SHR72 rats | Kd [7]: 0.0013 µM

SMILES: [11CH3]Nc1ccc(/C=C/C=C/c2nc3cc(F)c(O)cc3s2)cn1 [[^11C]LM229]
Maximum brain uptake (%ID/g max) ([8]; P301S mouse): 2.38 %ID/g | Time of maximum brain uptake ([8]; WT and P301S mice): within the first minute | Maximum brain uptake (%ID/g max) ([8]; WT mouse): 1.56 %ID/g

SMILES: [11CH3]Nc1ccc(/C=C/C=C/c2nc3ccc(O)cc3s2)cn1 [[^11C]PBB3]
Binding to tau pathology in PS19 tau transgenic mice [9]: bind to tau pathology

SMILES: [18F]c1ccc(-c2ccc3c(c2)[nH]c2ccncc23)cn1 [[^18F]T807]
Specific binding to tau tangles in P301L tau mice [10]: no specific binding | Difference in retention in brainstem compared to control WT mice [11]: no more than 23%

Kd [1]: 0.056 µM
SMILES: Oc1ccc2nc(/C=C/C=C/c3ccc(F)nc3)sc2c1 [compound 148]

Kd [1]: 0.353 µM
SMILES: Oc1ccc2nc(/C=C/C=C/c3ccc(F)cn3)sc2c1 [compound 152]

Change of the MST data curve [12]: no changes
SMILES: Fc1ccc(/C=C/C=C/c2nc3ccccc3s2)nc1 [compound 164]

Change of the MST data curve [12]: no changes
SMILES: Oc1ccc2sc(/C=C/C=C/c3ccc(F)cn3)nc2c1 [compound 166]

Change of the MST data curve [12]: no changes
SMILES: Fc1ccc(/C=C/C=C/c2nc3ccccc3s2)cn1 [compound 169]

Kd [1]: 0.0011 µM
SMILES: CNc1ccc(/C=C/C=C/c2nc3cc(F)c(OC)cc3s2)cn1 [compound 225]

Kd [1]: 0.454 µM
SMILES: CNc1ccc(/C=C/C=C/c2nc3cc(OCCF)ccc3s2)cn1 [compound 236]

— paper PMC8176454, “Synthesis and Assessment of Novel Probes for Imaging Tau Pathology in Transgenic Mouse and Rat Models” (ACS Chemical Neuroscience, 2021)
